This experiment addresses T1, full-length beta-Catenin (Uniprot ID P35222) (Homo sapiens, UniProt P35222).
T1 construct: 10 nM full-length beta-Catenin (Uniprot ID P35222)
T1 sequence (P35222 1-781): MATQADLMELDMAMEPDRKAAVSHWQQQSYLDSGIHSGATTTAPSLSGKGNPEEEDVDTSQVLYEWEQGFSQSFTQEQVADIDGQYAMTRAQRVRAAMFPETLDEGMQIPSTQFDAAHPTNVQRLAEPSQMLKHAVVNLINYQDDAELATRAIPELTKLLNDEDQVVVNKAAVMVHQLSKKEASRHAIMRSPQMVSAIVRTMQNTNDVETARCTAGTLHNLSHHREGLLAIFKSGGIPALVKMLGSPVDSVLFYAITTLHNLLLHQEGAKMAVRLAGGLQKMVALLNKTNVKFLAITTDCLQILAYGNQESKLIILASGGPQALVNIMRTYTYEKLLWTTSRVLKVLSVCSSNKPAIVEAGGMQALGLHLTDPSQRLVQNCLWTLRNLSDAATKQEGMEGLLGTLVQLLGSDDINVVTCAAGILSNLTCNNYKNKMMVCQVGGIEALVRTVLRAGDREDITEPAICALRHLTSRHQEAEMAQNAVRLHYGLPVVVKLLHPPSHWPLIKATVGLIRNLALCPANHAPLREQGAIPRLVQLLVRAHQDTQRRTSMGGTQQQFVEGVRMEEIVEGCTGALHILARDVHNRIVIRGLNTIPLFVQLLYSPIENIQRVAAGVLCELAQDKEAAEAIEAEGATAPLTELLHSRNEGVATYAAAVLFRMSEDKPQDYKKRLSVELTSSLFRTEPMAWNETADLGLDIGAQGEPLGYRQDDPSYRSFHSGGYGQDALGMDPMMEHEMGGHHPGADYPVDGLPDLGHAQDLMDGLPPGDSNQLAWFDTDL
The experiment is described as follows: Fluorescence polarization IC50 (beta-catenin / 5FAM-TCF4 10-53 competition). The format is binding. To be noted: fluorescence polarization; read-out: beta-Catenin FP IC50. In general terms: Polarisation of emitted light reports the rotation of a fluorescent probe.

Molecules are shown by their SMILES.

By IC50 is commonly meant the concentration that inhibits the measured activity by half.

As to `CC(=O)N1CCC[C@]12CCCCCCC1(CCCCCCCCOC(=O)N3CC[C@@](C(=O)N[C@@H](Cc4ccsc4)C(=O)N[C@@H](Cc4csc5ccccc45)C(=O)N[C@@H](CCC(N)=O)C(N)=O)(C3)NC(=O)[C@H](CC(N)=O)NC(=O)[C@H](Cc3ccccc3)NC(=O)[C@H](C)NC(=O)[C@H](C)NC(=O)[C@H](CC(=O)O)NC(=O)[C@H](CC(=O)O)NC1=O)NC(=O)[C@H](CC(C)(C)C)NC(=O)[C@H](CC(=O)O)NC2=O` (stereo partly drawn) [I-1987, Ac-PL3-Asp-Npg-B5-Asp-Asp-Ala-Ala-Phe-Asn-PyrS2-3Thi-BztA-Gln-NH2], the IC50 came out at 54 nM. The figure for `CC(=O)N1CCC[C@H]1C(=O)N[C@@H](CC(=O)O)C(=O)N[C@@H](CC(C)(C)C)C(=O)N[C@]1(C)CCCCC=CCCCOC(=O)N2CC[C@@](C(=O)N[C@@H](Cc3ccsc3)C(=O)N[C@@H](Cc3csc4ccccc34)C(=O)N[C@@H](CCC(N)=O)C(N)=O)(C2)NC(=O)[C@H](CC(C)C)NC(=O)[C@H](Cc2ccccc2)NC(=O)[C@H](C)NC(=O)[C@H](C)NC(=O)[C@H](CC(=O)O)NC(=O)[C@H](CC(=O)O)NC1=O` [I-1988, Ac-Pro-Asp-Npg-R6-Asp-Asp-Ala-Ala-Phe-Leu-PyrS2-3Thi-BztA-Gln-NH2] is 312 nM; for `CC(=O)N1CCC[C@H]1C(=O)N[C@@H](CC(=O)O)C(=O)N[C@@H](CC(C)(C)C)C(=O)N[C@]1(C)CCC=CCCCOC(=O)N2CC[C@@](C(=O)N[C@@H](Cc3ccsc3)C(=O)N[C@@H](Cc3csc4ccccc34)C(=O)N[C@@H](CCC(N)=O)C(N)=O)(C2)NC(=O)[C@H](CC(C)C)NC(=O)[C@H](Cc2ccccc2)NC(=O)[C@H](C)NC(=O)[C@H](C)NC(=O)[C@H](CC(=O)O)NC(=O)[C@H](CC(=O)O)NC1=O` [I-1989, Ac-Pro-Asp-Npg-R4-Asp-Asp-Ala-Ala-Phe-Leu-PyrS2-3Thi-BztA-Gln-NH2] it is 186 nM; for `CC(=O)N1CCC[C@H]1C(=O)N[C@@H](CC(=O)O)C(=O)N[C@@H](CC(C)(C)C)C(=O)N[C@]1(C)CC=CCCCOC(=O)N2CC[C@@](C(=O)N[C@@H](Cc3ccsc3)C(=O)N[C@@H](Cc3csc4ccccc34)C(=O)N[C@@H](CCC(N)=O)C(N)=O)(C2)NC(=O)[C@H](CC(C)C)NC(=O)[C@H](Cc2ccccc2)NC(=O)[C@H](C)NC(=O)[C@H](C)NC(=O)[C@H](CC(=O)O)NC(=O)[C@H](CC(=O)O)NC1=O` [I-1990, Ac-Pro-Asp-Npg-R3-Asp-Asp-Ala-Ala-Phe-Leu-PyrS2-3Thi-BztA-Gln-NH2] it is 585 nM. For the compound `CC(=O)N1CCC[C@H]1C(=O)N[C@@H](CC(=O)O)C(=O)N[C@@H](CC(C)(C)C)C(=O)N[C@]1(C)CCCCCCCCCOC(=O)N2CC[C@@](C(=O)N[C@@H](Cc3ccsc3)C(=O)N[C@@H](Cc3csc4ccccc34)C(=O)N[C@@H](CCC(N)=O)C(N)=O)(C2)NC(=O)[C@H](CC(C)C)NC(=O)[C@H](Cc2ccccc2)NC(=O)[C@H](C)NC(=O)[C@H](C)NC(=O)[C@H](CC(=O)O)NC(=O)[C@H](CC(=O)O)NC1=O` [I-1991, Ac-Pro-Asp-Npg-R6-Asp-Asp-Ala-Ala-Phe-Leu-PyrS2-3Thi-BztA-Gln-NH2], the IC50 was determined as 397 nM. For `CC(=O)N1CCC[C@H]1C(=O)N[C@@H](CC(=O)O)C(=O)N[C@@H](CC(C)(C)C)C(=O)N[C@]1(C)CCCCCCCOC(=O)N2CC[C@@](C(=O)N[C@@H](Cc3ccsc3)C(=O)N[C@@H](Cc3csc4ccccc34)C(=O)N[C@@H](CCC(N)=O)C(N)=O)(C2)NC(=O)[C@H](CC(C)C)NC(=O)[C@H](Cc2ccccc2)NC(=O)[C@H](C)NC(=O)[C@H](C)NC(=O)[C@H](CC(=O)O)NC(=O)[C@H](CC(=O)O)NC1=O` [I-1992, Ac-Pro-Asp-Npg-R4-Asp-Asp-Ala-Ala-Phe-Leu-PyrS2-3Thi-BztA-Gln-NH2] the value was 536 nM. The figure for `CC(=O)N1CCC[C@H]1C(=O)N[C@@H](CC(=O)O)C(=O)N[C@@H](CC(C)(C)C)C(=O)N[C@]1(C)CCCCCCOC(=O)N2CC[C@@](C(=O)N[C@@H](Cc3ccsc3)C(=O)N[C@@H](Cc3csc4ccccc34)C(=O)N[C@@H](CCC(N)=O)C(N)=O)(C2)NC(=O)[C@H](CC(C)C)NC(=O)[C@H](Cc2ccccc2)NC(=O)[C@H](C)NC(=O)[C@H](C)NC(=O)[C@H](CC(=O)O)NC(=O)[C@H](CC(=O)O)NC1=O` [I-1993, Ac-Pro-Asp-Npg-R3-Asp-Asp-Ala-Ala-Phe-Leu-PyrS2-3Thi-BztA-Gln-NH2] is 728 nM. `CC(=O)N1CCC[C@]12CC=CCCCC1(CCCC=CCCCOC(=O)N3CC[C@@](C(=O)N[C@@H](Cc4cccc(C(F)(F)F)c4)C(=O)N[C@@H](Cc4csc5ccccc45)C(=O)N[C@@H](CCC(N)=O)C(N)=O)(C3)NC(=O)[C@H](CC(N)=O)NC(=O)[C@H](Cc3ccccc3)NC(=O)[C@H](C)NC(=O)[C@H](C)NC(=O)[C@H]([C@@H](C)O)NC(=O)[C@H](CC(N)=O)NC1=O)NC(=O)[C@H](CC(C)(C)C)NC(=O)[C@H](CC(=O)O)NC2=O` (stereo partly drawn) [I-1997, Ac-PL3-Asp-Npg-B5-Asn-Thr-Ala-Ala-Phe-Asn-PyrS2-3F3MeF-BztA-Gln-NH2]: the 50% inhibitory concentration (IC50) amounted to 3390 nM.

Turning to `CC(=O)N1CCC[C@]12CC=CCCCC1(CCCC=CCCCOC(=O)N3CC[C@@](C(=O)N[C@@H](Cc4ccccc4Cl)C(=O)N[C@@H](Cc4csc5ccccc45)C(=O)N[C@@H](CCC(N)=O)C(N)=O)(C3)NC(=O)[C@H](CC(N)=O)NC(=O)[C@H](Cc3ccccc3)NC(=O)[C@H](C)NC(=O)[C@H](C)NC(=O)[C@H]([C@@H](C)O)NC(=O)[C@H](CC(N)=O)NC1=O)NC(=O)[C@H](CC(C)(C)C)NC(=O)[C@H](CC(=O)O)NC2=O` (stereo partly drawn) [I-1998, Ac-PL3-Asp-Npg-B5-Asn-Thr-Ala-Ala-Phe-Asn-PyrS2-2C1F-BztA-Gln-NH2], the IC50 came out at 732 nM.

As to `CC(=O)N1CCC[C@]12CC=CCCCC1(CCCC=CCCCOC(=O)N3CC[C@@](C(=O)N[C@@H](Cc4ccccc4Cl)C(=O)N[C@@H](Cc4csc5ccccc45)C(=O)N[C@@H](CCC(N)=O)C(N)=O)(C3)NC(=O)[C@H](CC(N)=O)NC(=O)[C@H](Cc3ccccc3)NC(=O)[C@H](C)NC(=O)[C@H](C)NC(=O)[C@H]([C@@H](C)O)NC(=O)[C@H](CC(N)=O)NC1=O)NC(=O)[C@H](CC(C)(C)C)NC(=O)[C@H](CC(=O)O)NC2=O` (stereo partly drawn) [I-1999, Ac-PL3-Asp-Npg-B5-Asn-Thr-Ala-Ala-Phe-Asn-PyrS2-2C1F-BztA-Gln-NH2], the IC50 came to 4940 nM. The figure for `CC(=O)N1CCC[C@]12CC=CCCCC1(CCCC=CCCCOC(=O)N3CC[C@@](C(=O)N[C@@H](Cc4cccc(Cl)c4)C(=O)N[C@@H](Cc4csc5ccccc45)C(=O)N[C@@H](CCC(N)=O)C(N)=O)(C3)NC(=O)[C@H](CC(N)=O)NC(=O)[C@H](Cc3ccccc3)NC(=O)[C@H](C)NC(=O)[C@H](C)NC(=O)[C@H]([C@@H](C)O)NC(=O)[C@H](CC(N)=O)NC1=O)NC(=O)[C@H](CC(C)(C)C)NC(=O)[C@H](CC(=O)O)NC2=O` (stereo partly drawn) [I-2000, Ac-PL3-Asp-Npg-B5-Asn-Thr-Ala-Ala-Phe-Asn-PyrS2-3C1F-BztA-Gln-NH2] is 6560 nM. Consider `CC(=O)N1CCC[C@]12CC=CCCCC1(CCCC=CCCCOC(=O)N3CC[C@@](C(=O)N[C@@H](Cc4cccc(Cl)c4)C(=O)N[C@@H](Cc4csc5ccccc45)C(=O)N[C@@H](CCC(N)=O)C(N)=O)(C3)NC(=O)[C@H](CC(N)=O)NC(=O)[C@H](Cc3ccccc3)NC(=O)[C@H](C)NC(=O)[C@H](C)NC(=O)[C@H]([C@@H](C)O)NC(=O)[C@H](CC(N)=O)NC1=O)NC(=O)[C@H](CC(C)(C)C)NC(=O)[C@H](CC(=O)O)NC2=O` (stereo partly drawn) [I-2001, Ac-PL3-Asp-Npg-B5-Asn-Thr-Ala-Ala-Phe-Asn-PyrS2-3C1F-BztA-Gln-NH2], for which the IC50 came to 4450 nM.

Source of the values: patent publication US20240116985A1, “STAPLED PEPTIDES AND METHODS THEREOF” (priority 2020, published 2024).
